# Laboratory results from ChEMBL document CHEMBL1133109, “Design, synthesis, and pharmacological characterization of 4-[4, 4-dimethyl-3-(4-hydroxybutyl)-5-oxo-2-thioxo-1-imidazolidinyl]- 2-iodobenzonitrile as a high-affinity nonsteroidal androgen receptor ligand” (J Med Chem, 2000).
# Molecular target: T1, Androgen receptor (Rattus norvegicus, UniProt P15207)
# T1 sequence (P15207 whole entry): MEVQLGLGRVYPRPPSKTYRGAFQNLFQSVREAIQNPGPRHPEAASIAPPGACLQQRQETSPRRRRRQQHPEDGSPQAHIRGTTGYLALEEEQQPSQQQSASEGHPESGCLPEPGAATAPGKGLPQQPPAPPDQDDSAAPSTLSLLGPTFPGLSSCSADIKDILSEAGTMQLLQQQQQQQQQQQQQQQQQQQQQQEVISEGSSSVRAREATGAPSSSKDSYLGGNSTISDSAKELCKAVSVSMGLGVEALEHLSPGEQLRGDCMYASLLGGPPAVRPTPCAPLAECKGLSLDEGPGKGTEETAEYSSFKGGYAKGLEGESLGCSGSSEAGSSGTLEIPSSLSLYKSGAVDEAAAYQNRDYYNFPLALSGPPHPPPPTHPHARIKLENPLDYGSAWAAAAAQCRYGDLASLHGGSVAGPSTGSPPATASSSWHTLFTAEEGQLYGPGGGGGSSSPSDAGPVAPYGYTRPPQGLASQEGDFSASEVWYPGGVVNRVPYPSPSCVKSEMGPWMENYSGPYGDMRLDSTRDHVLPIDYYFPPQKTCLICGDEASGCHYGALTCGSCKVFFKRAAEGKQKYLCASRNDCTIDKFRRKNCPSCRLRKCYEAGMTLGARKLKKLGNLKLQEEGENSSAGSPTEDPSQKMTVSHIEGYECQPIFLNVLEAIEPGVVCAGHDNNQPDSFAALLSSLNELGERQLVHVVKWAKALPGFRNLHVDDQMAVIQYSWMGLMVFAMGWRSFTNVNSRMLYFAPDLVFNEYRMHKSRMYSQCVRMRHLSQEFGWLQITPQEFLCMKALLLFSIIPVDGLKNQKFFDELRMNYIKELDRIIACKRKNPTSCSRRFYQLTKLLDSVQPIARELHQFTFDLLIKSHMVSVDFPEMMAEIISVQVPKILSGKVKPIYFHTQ
# Description: Inhibitory constant against rat prostate cytosol androgen receptor using [3H]mibolerone
row,SMILES,Ki [nM]
1,C[C@@H]1CC2=CC(=O)CC[C@@H]2[C@H]2CC[C@@]3(C)[C@@H](CC[C@]3(C)O)[C@@H]21 [MIBOLERONE],0.75
2,CC1(C)C(=O)N(c2ccc(C#N)c(I)c2)C(=S)N1CCCCO,0.71
3,CC1(C)C(=O)N(c2ccc(C#N)c(C(F)(F)F)c2)C(=S)N1CCCCO,2.23
